In patent US6395896B2, “Pyridazine derivatives, manufacturing method and related composition” (Shiseido Co., Ltd., priority 1999, dated 2002):

Assay: Colorant stabilization effect (photostabilizer, sunlight exposure)
Set-up: key to Sunlight exposure (80 MJ) Appearance: A: No change; B: No almost change; C: Yes change; key to Sunlight exposure (80 MJ) ΔE: ΔE color difference (Lab) vs. color before sunlight exposure
Summary of the method: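 Samples exposed to sunlight (around 80 MJ); appearance change judged visually. Color difference (ΔE) measured by spectrophotometer in Lab coordinates, calculated against the same sample's color before exposure.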

[1] = Red No. 227 0.0001 wt % + Yellow No. 5 0.0001 wt %, photostabilizer 0.05 wt %
[2] = Red No. 227 0.0001 wt % + Yellow No. 5 0.0001 wt %, photostabilizer 0.1 wt %
[3] = Red No. 227 0.0001 wt % + Yellow No. 203 0.0001 wt %, photostabilizer 0.05 wt %
[4] = Red No. 227 0.0001 wt % + Yellow No. 203 0.0001 wt %, photostabilizer 0.1 wt %
[5] = Red No. 227 0.0001 wt % + Yellow No. 203 0.0001 wt %, photostabilizer 0.3 wt %
[6] = Red No. 227 0.0001 wt %, photostabilizer 0.02 wt %
[7] = Red No. 227 0.0001 wt %, photostabilizer 0.05 wt %
[8] = Red No. 227 0.0001 wt %, photostabilizer 0.1 wt %
[9] = Red No. 401 0.0001 wt % + Blue No. 1 0.00001 wt %, photostabilizer 0.03 wt %
[10] = Red No. 401 0.0001 wt % + Blue No. 1 0.00001 wt %, photostabilizer 0.05 wt %
[11] = Red No. 401 0.0001 wt % + Blue No. 1 0.00001 wt %, photostabilizer 0.1 wt %
[12] = Red No. 401 0.0001 wt % + Green No. 3 0.00001 wt %, photostabilizer 0.03 wt %
[13] = Red No. 401 0.0001 wt % + Green No. 3 0.00001 wt %, photostabilizer 0.05 wt %
[14] = Red No. 401 0.0001 wt % + Green No. 3 0.00001 wt %, photostabilizer 0.3 wt %
[15] = Red No. 401 0.0001 wt %, photostabilizer 0.05 wt %
[16] = Red No. 401 0.0001 wt %, photostabilizer 0.1 wt %
[17] = Red No. 401 0.0001 wt %, photostabilizer 0.3 wt %
[18] = Red No. 401 0.001 wt %, photostabilizer 0.03 wt %
[19] = Red No. 401 0.001 wt %, photostabilizer 0.05 wt %
[20] = Red No. 401 0.001 wt %, photostabilizer 0.1 wt %
[21] = Yellow No. 5 0.0001 wt %, photostabilizer 0.05 wt %
[22] = Yellow No. 5 0.0001 wt %, photostabilizer 0.1 wt %
[23] = Yellow No. 5 0.0001 wt %, photostabilizer 0.3 wt %
[24] = Yellow No. 5 0.001 wt %, photostabilizer 0.01 wt %
[25] = Yellow No. 5 0.001 wt %, photostabilizer 0.05 wt %
[26] = Yellow No. 5 0.001 wt %, photostabilizer 0.1 wt %
[27] = Yellow No. 203 0.0001 wt % + Yellow No. 5 0.0001 wt %, photostabilizer 0.03 wt %
[28] = Yellow No. 203 0.0001 wt % + Yellow No. 5 0.0001 wt %, photostabilizer 0.05 wt %
[29] = Yellow No. 203 0.0001 wt % + Yellow No. 5 0.0001 wt %, photostabilizer 0.1 wt %
[30] = Yellow No. 203 0.0001 wt %, photostabilizer 0.05 wt %
[31] = Yellow No. 203 0.0001 wt %, photostabilizer 0.1 wt %
[32] = Yellow No. 203 0.0001 wt %, photostabilizer 0.3 wt %
[33] = Yellow No. 203 0.001 wt %, photostabilizer 0.02 wt %
[34] = Yellow No. 203 0.001 wt %, photostabilizer 0.05 wt %
[35] = Yellow No. 203 0.001 wt %, photostabilizer 0.1 wt %

Oc1nncc(N2CCOCC2)c1N1CCOCC1 [4,5-Dimorpholino-3-hydroxypyridazine]
Sunlight exposure (80 MJ) ΔE (Red No. 227 0.0001 wt % + Yellow No. 5 0.0001 wt %, photostabilizer 0.03 wt %): 0.72
Sunlight exposure (80 MJ) Appearance [1]: A
Sunlight exposure (80 MJ) ΔE [1]: 0.59
Sunlight exposure (80 MJ) Appearance [2]: A
Sunlight exposure (80 MJ) ΔE [2]: 0.18
Sunlight exposure (80 MJ) Appearance [3]: A
Sunlight exposure (80 MJ) ΔE [3]: 0.78
Sunlight exposure (80 MJ) Appearance [4]: A
Sunlight exposure (80 MJ) ΔE [4]: 0.35
Sunlight exposure (80 MJ) Appearance [5]: A
Sunlight exposure (80 MJ) ΔE [5]: 0.14
Sunlight exposure (80 MJ) Appearance [6]: A
Sunlight exposure (80 MJ) ΔE [6]: 0.71
Sunlight exposure (80 MJ) Appearance [7]: A
Sunlight exposure (80 MJ) ΔE [7]: 0.49
Sunlight exposure (80 MJ) Appearance [8]: A
Sunlight exposure (80 MJ) ΔE [8]: 0.22
Sunlight exposure (80 MJ) Appearance [9]: A
Sunlight exposure (80 MJ) ΔE [9]: 0.95
Sunlight exposure (80 MJ) Appearance [10]: A
Sunlight exposure (80 MJ) ΔE [10]: 0.32
Sunlight exposure (80 MJ) Appearance [11]: A
Sunlight exposure (80 MJ) ΔE [11]: 0.07
Sunlight exposure (80 MJ) Appearance [12]: A
Sunlight exposure (80 MJ) ΔE [12]: 0.98
Sunlight exposure (80 MJ) Appearance [13]: A
Sunlight exposure (80 MJ) ΔE [13]: 0.73
Sunlight exposure (80 MJ) Appearance [14]: A
Sunlight exposure (80 MJ) ΔE [14]: 0.14
Sunlight exposure (80 MJ) Appearance [15]: A
Sunlight exposure (80 MJ) ΔE [15]: 0.82
Sunlight exposure (80 MJ) Appearance [16]: A
Sunlight exposure (80 MJ) ΔE [16]: 0.56
Sunlight exposure (80 MJ) Appearance [17]: A
Sunlight exposure (80 MJ) ΔE [17]: 0.19
Sunlight exposure (80 MJ) Appearance [18]: A
Sunlight exposure (80 MJ) ΔE [18]: 0.95
Sunlight exposure (80 MJ) Appearance [19]: A
Sunlight exposure (80 MJ) ΔE [19]: 0.71
Sunlight exposure (80 MJ) Appearance [20]: A
Sunlight exposure (80 MJ) ΔE [20]: 0.45
Sunlight exposure (80 MJ) Appearance [21]: A
Sunlight exposure (80 MJ) ΔE [21]: 0.59
Sunlight exposure (80 MJ) Appearance [22]: A
Sunlight exposure (80 MJ) ΔE [22]: 0.71
Sunlight exposure (80 MJ) Appearance [23]: A
Sunlight exposure (80 MJ) ΔE [23]: 0.22
Sunlight exposure (80 MJ) Appearance [24]: A
Sunlight exposure (80 MJ) ΔE [24]: 0.61
Sunlight exposure (80 MJ) Appearance [25]: A
Sunlight exposure (80 MJ) ΔE [25]: 0.43
Sunlight exposure (80 MJ) Appearance [26]: A
Sunlight exposure (80 MJ) ΔE [26]: 0.22
Sunlight exposure (80 MJ) Appearance [27]: A
Sunlight exposure (80 MJ) ΔE [27]: 0.52
Sunlight exposure (80 MJ) Appearance [28]: A
Sunlight exposure (80 MJ) ΔE [28]: 0.37
Sunlight exposure (80 MJ) Appearance [29]: A
Sunlight exposure (80 MJ) ΔE [29]: 0.12
Sunlight exposure (80 MJ) Appearance [30]: A
Sunlight exposure (80 MJ) ΔE [30]: 0.22
Sunlight exposure (80 MJ) Appearance [31]: A
Sunlight exposure (80 MJ) ΔE [31]: 0.10
Sunlight exposure (80 MJ) Appearance [32]: A
Sunlight exposure (80 MJ) ΔE [32]: 0.05
Sunlight exposure (80 MJ) Appearance [33]: A
Sunlight exposure (80 MJ) ΔE [33]: 0.25
Sunlight exposure (80 MJ) Appearance [34]: A
Sunlight exposure (80 MJ) ΔE [34]: 0.18
Sunlight exposure (80 MJ) Appearance [35]: A
Sunlight exposure (80 MJ) ΔE [35]: 0.08
change of appearance of the composition (summary of Tables 11 to 13): small
color difference ΔE (summary of Tables 11 to 13): very small in comparison with other photostabilizers
